Experimental data as given in US7153884B2, “C-2′ methylated derivatives of paclitaxel for use as antitumour agents” (Indena S.p.A., priority 2001, dated 2006).

Key:
Format in all cases: cell-based
A2780tax cell line = assay: Cell viability by ATP dosage (ATPlite), 72 h continuous exposure, A2780tax; conditions: A2780tax cells, continuous exposure 72 hours, viable cells by ATP dosage
Description: (§1) Pharmacological experimentation was carried out on the compounds of the invention at a 0.1% concentration in dimethylsulfoxide. A2780wt, A2780cis, A2780adr and A2780tax cell lines were used. Cells were plated on 96 well flat bottom plates (Viewplates, Packard). After 24-hours, the culture medium was replaced and, after washing, media containing the tested compounds were added. A dose-response logarithmic curve was established in quadruplicate for each plate, starting from […]. Each assay was effected in duplicate three times. After 72 hour-culture in the presence of the tested compounds, the cells were collected and the number of viable cells was evaluated by ATP dosage, using the ATPlite kit (Packard, Meridien, Mo., USA) and the Topcount (Packard) automated luminometer. For each drug/cell line, the dose-response curve was plotted and the IC50 values were calculated from the concentration-effect curve obtained in three tests with the sigmoid-Emax model using non-linear regression, weighted by the reciprocal of the square of the predicted effect.

A2780wt cell line = assay: Cell viability by ATP dosage (ATPlite), 72 h continuous exposure, A2780wt; conditions: A2780wt cells, continuous exposure 72 hours, viable cells by ATP dosage
Description: as §1

A2780adr cell line = assay: Cell viability by ATP dosage (ATPlite), 72 h continuous exposure, A2780adr; conditions: A2780adr cells, continuous exposure 72 hours, viable cells by ATP dosage
Description: as §1

A2780cis cell line = assay: Cell viability by ATP dosage (ATPlite), 72 h continuous exposure, A2780cis; conditions: A2780cis cells, continuous exposure 72 hours, viable cells by ATP dosage
Description: as §1

Compound | IC50 (A2780tax cell line) [nM] | IC50 (A2780wt cell line) [nM] | IC50 (A2780adr cell line) [nM] | IC50 (A2780cis cell line) [nM]
CC(=O)O[C@H]1C(=O)[C@@]2(C)[C@H]([C@H](OC(=O)c3ccccc3)[C@]34OC(=O)O[C@H]3[C@H](OC(=O)[C@](C)(O)[C@@H](NC(=O)OC(C)(C)C)c3ccccc3)C(C)=C1C4(C)C)[C@]1(OC(C)=O)CO[C@@H]1C[C@@H]2O [Es. 2, (2′R,3′S)-13-(N-Boc-2-methyl-3-phenylisoserinoyl)-14β-hydroxybaccatin III 1,14-carbonate] | 299 ± 77 | 2.53 ± 1.47 | 52.9 ± 16.2 | 1.7 ± 0.4
CC(=O)O[C@H]1C(=O)[C@@]2(C)[C@H]([C@H](OC(=O)c3ccccc3)[C@]3(O)C[C@H](OC(=O)[C@](C)(O)[C@@H](NC(=O)OC(C)(C)C)c4ccco4)C(C)=C1C3(C)C)[C@]1(OC(C)=O)CO[C@@H]1C[C@@H]2O [Es. 3, (2′R,3′R)-13-[N-Boc-2-methyl-3-(2-furanyl)-isoserinoyl]-baccatin III] | 312 ± 61 | 2.9 ± 0.1 | 41.3 ± 7.4 | 3.3 ± 0.2
CC(=O)OC1C(=O)C2(C)C(O)CC3OCC3(OC(C)=O)C2C(OC(=O)c2ccccc2)C2(O)CC(OC(=O)C(C)(O)C(NC(=O)c3ccccc3)c3ccco3)C(C)=C1C2(C)C (stereo not drawn) [Es. 1, (2′R,3′R)-3′-dephenyl-3′-(2-furyl)-2′-methyl-paclitaxel] | 420 ± 93 | 3.1 ± 0.2 | 61.4 ± 3.9 | 2.9 ± 0.1

Next, values leading:

IC50 (A2780tax cell line) [nM] | IC50 (A2780wt cell line) [nM] | IC50 (A2780adr cell line) [nM] | IC50 (A2780cis cell line) [nM] | Compound
160 ± 32 | 3.7 ± 0.4 | 93.2 ± 20.4 | 2.9 ± 0.2 | (2′R,3′R)-13-[N-Boc-2-methyl-3-(2-thienyl)isoserinoyl]-14β-hydroxybaccatin III 1,14-carbonate [Es. 6]
285 ± 60 | 4.64 ± 2.58 | 79.3 ± 19.9 | 2.8 ± 0.6 | CC(=O)O[C@H]1C(=O)[C@@]2(C)[C@H]([C@H](OC(=O)c3ccccc3)[C@]34OC(=O)O[C@H]3[C@H](OC(=O)[C@](C)(O)[C@@H](NC(=O)OC(C)(C)C)C(F)(F)F)C(C)=C1C4(C)C)[C@]1(OC(C)=O)CO[C@@H]1C[C@@H]2O [Es. 5, (2′R,3′R)-13-[N-Boc-2-methyl-3-trifluoromethylisoserinoyl]-14β-hydroxybaccatin III 1,14-carbonate]
30.9 ± 3.7 | 5.9 ± 0.7 | 27.1 ± 10.1 | 2.5 ± 0.3 | CC(=O)O[C@H]1C(=O)[C@@]2(C)[C@H]([C@H](OC(=O)c3ccccc3)[C@]34OC(=O)O[C@H]3[C@H](OC(=O)[C@](C)(O)[C@@H](NC(=O)OC(C)(C)C)c3ccco3)C(C)=C1C4(C)C)[C@]1(OC(C)=O)CO[C@@H]1C[C@@H]2O [Es. 4, (2′R,3′R)-13-[N-Boc-2-methyl-3-(2-furanyl)isoserinoyl]-14β-hydroxybaccatin III 1,14-carbonate]
